Results taken from patent US9290777B2, “Putative cytokinin receptor and methods for use thereof” (NATIONAL UNIVERSITY OF SINGAPORE, priority 2007, dated 2016).

Test system: ARR5
Test: qRT-PCR of cytokinin responsive gene after BA pulse, fold change vs untreated wild type
Format: cell-based, Arabidopsis thaliana
Description: For quantitative real-time PCR (qRT-PCR) analysis of cytokinin-inducible gene expression, seeds were germinated on MS medium with 3% (w/v) sucrose and grown for 6 days. Cytokinin treatment was carried out by incubating seedlings in the same MS+sucrose liquid medium (no agar) supplemented with 0, 0.01, 0.1, 1 or 5 μM [solubilized in 0.1% dimethylsulfoxide (DMSO) and diluted with the MS medium] for 5 min, 15 min, 30 min or 1 h. The control seedlings were incubated with DMSO (0.1%, the concentration used to dissolve cytokinins for the treatment) for the corresponding durations and used for expression analysis. Before RNA preparation, WT, OE and AS seedlings were pooled and stored in RNAlater solution (Qiagen, Valencia, Calif.). Total RNA was extracted using the Rneasy Plant Mini Kit (Qiagen). SYBRgreen RT-PCR reagents (Applied Biosystems) were used to synthesize double-stranded cDNA. The number of transcripts present in biological replicates each of WT, OE and AS seedlings, with or without BA and DMSO, was determined from three independent replicates. Fold induction of the transcripts was calculated according to the manufacturer's instructions (ABI Prism 7700 Sequence Detection System, User Bulletin #2).

c1ccc(CNc2ncnc3nc[nH]c23)cc1 [benzyladenine]
ARR5 fold change (BA 0.01 μM, 5 min, AS1, ↑ up): 4.33↑ | ARR5 fold change (BA 0.01 μM, 5 min, AS8, ↑ up): 6.12↑ | ARR5 fold change (BA 0.01 μM, 5 min, AS21, ↑ up): 8.2↑ | ARR5 fold change (BA 0.01 μM, 5 min, OE1, ↓ down): 4.51↓ | ARR5 fold change (BA 0.01 μM, 5 min, OE12, ↓ down): 5.87↓ | ARR5 fold change (BA 0.01 μM, 5 min, OE18, ↓ down): 7.33↓ | ARR5 fold change (BA 0.01 μM, 5 min, Wild type, ↑ up): 3.55↑ | ARR5 fold change (BA 0.01 μM, 15 min, AS1, ↑ up): 4.77↑ | ARR5 fold change (BA 0.01 μM, 15 min, AS8, ↑ up): 6.68↑ | ARR5 fold change (BA 0.01 μM, 15 min, AS21, ↑ up): 8.58↑ | ARR5 fold change (BA 0.01 μM, 15 min, OE1, ↓ down): 4.33↓ | ARR5 fold change (BA 0.01 μM, 15 min, OE12, ↓ down): 5.55↓ | ARR5 fold change (BA 0.01 μM, 15 min, OE18, ↓ down): 7.03↓ | ARR5 fold change (BA 0.01 μM, 15 min, Wild type, ↑ up): 3.64↑ | ARR5 fold change (BA 0.01 μM, 30 min, AS1, ↑ up): 5.01↑ | ARR5 fold change (BA 0.01 μM, 30 min, AS8, ↑ up): 6.82↑ | ARR5 fold change (BA 0.01 μM, 30 min, AS21, ↑ up): 8.79↑ | ARR5 fold change (BA 0.01 μM, 30 min, OE1, ↓ down): 4.11↓ | ARR5 fold change (BA 0.01 μM, 30 min, OE12, ↓ down): 5.21↓ | ARR5 fold change (BA 0.01 μM, 30 min, OE18, ↓ down): 6.91↓ | ARR5 fold change (BA 0.01 μM, 30 min, Wild type, ↑ up): 4.11↑ | ARR5 fold change (BA 0.01 μM, 1 h, AS1, ↑ up): 5.11↑ | ARR5 fold change (BA 0.01 μM, 1 h, AS8, ↑ up): 7.16↑ | ARR5 fold change (BA 0.01 μM, 1 h, AS21, ↑ up): 9.15↑ | ARR5 fold change (BA 0.01 μM, 1 h, OE1, ↓ down): 3.91↓ | ARR5 fold change (BA 0.01 μM, 1 h, OE12, ↓ down): 4.96↓ | ARR5 fold change (BA 0.01 μM, 1 h, OE18, ↓ down): 6.63↓ | ARR5 fold change (BA 0.01 μM, 1 h, Wild type, ↑ up): 4.3↑ | ARR5 fold change (BA 0.1 μM, 5 min, AS1, ↑ up): 5.34↑ | ARR5 fold change (BA 0.1 μM, 5 min, AS8, ↑ up): 7.32↑ | ARR5 fold change (BA 0.1 μM, 5 min, AS21, ↑ up): 9.31↑ | ARR5 fold change (BA 0.1 μM, 5 min, OE1, ↓ down): 4.1↓ | ARR5 fold change (BA 0.1 μM, 5 min, OE12, ↓ down): 4.71↓ | ARR5 fold change (BA 0.1 μM, 5 min, OE18, ↓ down): 6.69↓ | ARR5 fold change (BA 0.1 μM, 5 min, Wild type, ↑ up): 4.66↑ | ARR5 fold change (BA 0.1 μM, 15 min, AS1, ↑ up): 5.59↑ | ARR5 fold change (BA 0.1 μM, 15 min, AS8, ↑ up): 7.49↑ | ARR5 fold change (BA 0.1 μM, 15 min, AS21, ↑ up): 9.46↑ | ARR5 fold change (BA 0.1 μM, 15 min, OE1, ↓ down): 4.04↓ | ARR5 fold change (BA 0.1 μM, 15 min, OE12, ↓ down): 4.63↓ | ARR5 fold change (BA 0.1 μM, 15 min, OE18, ↓ down): 6.51↓ | ARR5 fold change (BA 0.1 μM, 15 min, Wild type, ↑ up): 4.78↑ | ARR5 fold change (BA 0.1 μM, 30 min, AS1, ↑ up): 5.89↑ | ARR5 fold change (BA 0.1 μM, 30 min, AS8, ↑ up): 7.73↑ | ARR5 fold change (BA 0.1 μM, 30 min, AS21, ↑ up): 9.68↑ | ARR5 fold change (BA 0.1 μM, 30 min, OE1, ↓ down): 3.9↓ | ARR5 fold change (BA 0.1 μM, 30 min, OE12, ↓ down): 4.4↓ | ARR5 fold change (BA 0.1 μM, 30 min, OE18, ↓ down): 6.23↓ | ARR5 fold change (BA 0.1 μM, 30 min, Wild type, ↑ up): 4.95↑ | ARR5 fold change (BA 0.1 μM, 1 h, AS1, ↑ up): 6.07↑ | ARR5 fold change (BA 0.1 μM, 1 h, AS8, ↑ up): 8.04↑ | ARR5 fold change (BA 0.1 μM, 1 h, AS21, ↑ up): 9.97↑ | ARR5 fold change (BA 0.1 μM, 1 h, OE1, ↓ down): 3.67↓ | ARR5 fold change (BA 0.1 μM, 1 h, OE12, ↓ down): 4.01↓ | ARR5 fold change (BA 0.1 μM, 1 h, OE18, ↓ down): 6.01↓ | ARR5 fold change (BA 0.1 μM, 1 h, Wild type, ↑ up): 5.06↑ | ARR5 fold change (BA 1.0 μM, 5 min, AS1, ↑ up): 6.62↑ | ARR5 fold change (BA 1.0 μM, 5 min, AS8, ↑ up): 8.59↑ | ARR5 fold change (BA 1.0 μM, 5 min, AS21, ↑ up): 9.99↑ | ARR5 fold change (BA 1.0 μM, 5 min, OE1, ↓ down): 3.96↓ | ARR5 fold change (BA 1.0 μM, 5 min, OE12, ↓ down): 3.99↓ | ARR5 fold change (BA 1.0 μM, 5 min, OE18, ↓ down): 5.36↓ | ARR5 fold change (BA 1.0 μM, 5 min, Wild type, ↑ up): 5.21↑ | ARR5 fold change (BA 1.0 μM, 15 min, AS1, ↑ up): 6.88↑ | ARR5 fold change (BA 1.0 μM, 15 min, AS8, ↑ up): 8.93↑ | ARR5 fold change (BA 1.0 μM, 15 min, AS21, ↑ up): 10.12↑ | ARR5 fold change (BA 1.0 μM, 15 min, OE1, ↓ down): 3.71↓ | ARR5 fold change (BA 1.0 μM, 15 min, OE12, ↓ down): 3.46↓ | ARR5 fold change (BA 1.0 μM, 15 min, OE18, ↓ down): 5.21↓ | ARR5 fold change (BA 1.0 μM, 15 min, Wild type, ↑ up): 5.46↑ | ARR5 fold change (BA 1.0 μM, 30 min, AS1, ↑ up): 6.93↑ | ARR5 fold change (BA 1.0 μM, 30 min, AS8, ↑ up): 9.09↑ | ARR5 fold change (BA 1.0 μM, 30 min, AS21, ↑ up): 10.35↑ | ARR5 fold change (BA 1.0 μM, 30 min, OE1, ↓ down): 3.49↓ | ARR5 fold change (BA 1.0 μM, 30 min, OE12, ↓ down): 3.77↓ | ARR5 fold change (BA 1.0 μM, 30 min, OE18, ↓ down): 5.01↓ | ARR5 fold change (BA 1.0 μM, 30 min, Wild type, ↑ up): 5.79↑ | ARR5 fold change (BA 1.0 μM, 1 h, AS1, ↑ up): 7.31↑ | ARR5 fold change (BA 1.0 μM, 1 h, AS8, ↑ up): 9.17↑ | ARR5 fold change (BA 1.0 μM, 1 h, AS21, ↑ up): 10.76↑ | ARR5 fold change (BA 1.0 μM, 1 h, OE1, ↓ down): 3.21↓ | ARR5 fold change (BA 1.0 μM, 1 h, OE12, ↓ down): 3.52↓ | ARR5 fold change (BA 1.0 μM, 1 h, OE18, ↓ down): 4.72↓ | ARR5 fold change (BA 1.0 μM, 1 h, Wild type, ↑ up): 6.07↑ | ARR5 fold change (BA 5.0 μM, 5 min, AS1, ↑ up): 7.01↑ | ARR5 fold change (BA 5.0 μM, 5 min, AS8, ↑ up): 9.56↑ | ARR5 fold change (BA 5.0 μM, 5 min, AS21, ↑ up): 10.43↑ | ARR5 fold change (BA 5.0 μM, 5 min, OE1, ↓ down): 3.19↓ | ARR5 fold change (BA 5.0 μM, 5 min, OE12, ↓ down): 3.59↓ | ARR5 fold change (BA 5.0 μM, 5 min, OE18, ↓ down): 4.25↓ | ARR5 fold change (BA 5.0 μM, 5 min, Wild type, ↑ up): 6.72↑ | ARR5 fold change (BA 5.0 μM, 15 min, AS1, ↑ up): 7.31↑ | ARR5 fold change (BA 5.0 μM, 15 min, Wild type, ↑ up): 6.99↑ | ARR5 fold change (BA 5.0 μM, 1 h, AS1, ↑ up): 7.86↑ | ARR5 fold change (BA 5.0 μM, 1 h, AS8, ↑ up): 10.05↑ | ARR5 fold change (BA 5.0 μM, 1 h, AS21, ↑ up): 10.93↑ | ARR5 fold change (BA 5.0 μM, 1 h, OE1, ↓ down): 2.54↓ | ARR5 fold change (BA 5.0 μM, 1 h, OE12, ↓ down): 2.78↓ | ARR5 fold change (BA 5.0 μM, 1 h, OE18, ↓ down): 3.89↓ | ARR5 fold change (BA 5.0 μM, 1 h, Wild type, ↑ up): 7.24↑
